# Compound: CCOC1=CC=CC=C1N=NC2=C(NN(C2=O)C3=NC(=CS3)C4=CC=CC=C4)C [BAM7] + Cc1cc(Nc2cc(N3CCN(C)CC3)nc(Sc3ccc(NC(=O)C4CC4)cc3)n2)n[nH]1 [Tozasertib] (partner 0.1 µM)
# Assay: relative viability (nuclei count vs DMSO), 5 days (fraction); higher = more cells survive
# Conditions: first compound 50 µM
# Summary of the method: (§1)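 Values are medians from duplicate plates. Each reflects relative viability, defined as the nuclei count of treated wells over that of vehicle wells. Lung cancer cell lines in 1536-well plates were pin-tool dosed one day after seeding with one drug alone or with a fixed anchor-drug dose plus five library-drug doses (not always all listed) in √10 steps, then fixed, stained and imaged at 4× after 5 days.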
row,Cell Line,relative viability
1,BEN,0.423
2,HARA,0.0898
3,NCI-H1648,0.434
4,NCI-H2009,0.608
5,NCI-H661,0.358
6,SK-LU-1,0.323
7,NCI-H2228,0.286
8,NCI-H2023,0.177

# Compound: CCOC1=CC=CC=C1N=NC2=C(NN(C2=O)C3=NC(=CS3)C4=CC=CC=C4)C [BAM7] + NC(=O)Nc1cc(-c2cccc(F)c2)sc1C(=O)N[C@H]1CCCNC1 [AZD7762] (partner 0.2 µM)
# Assay: as above
# Conditions: first compound 0.5 µM
# Summary of the method: as §1
row,Cell Line,relative viability
1,NCI-H522,0.748
2,NCI-H727,0.586
3,NCI-H1703,0.14
4,NCI-H1993,0.814
5,NCI-H838,0.919
6,LCLC-103H,0.825
7,NCI-H2126,0.804
8,EMC-BAC-2,1.15
9,NCI-H2085,0.967
10,HCC-366,0.173
11,NCI-H1666,0.847
12,NCI-H596,1.27
13,LK-2,0.407
14,NCI-H2087,1.34
15,NCI-H2342,0.53
16,H3255,0.831
17,LOU-NH91,0.796
18,ChaGo-K-1,0.831
19,NCI-H2170,0.652
20,NCI-H2405,0.832
21,HOP-62,0.648
22,HCC-44,1.03
23,LU99A,0.371
24,BEN,0.689
25,HARA,0.21
26,NCI-H1648,0.489
27,NCI-H1792,0.681

# Same assay, conditions: first compound 5 µM
row,Cell Line,relative viability
1,NCI-H522,0.967
2,NCI-H727,0.675
3,NCI-H1703,0.115
4,NCI-H1993,0.624
5,NCI-H838,0.968
6,LCLC-103H,0.88
7,NCI-H2126,0.983
8,EMC-BAC-2,0.999
9,NCI-H2085,0.709
10,HCC-366,0.19
11,NCI-H1666,0.826
12,NCI-H596,1.12
13,LK-2,0.472
14,NCI-H2087,1.47
15,NCI-H2342,0.61
16,H3255,0.838
17,LOU-NH91,0.794
18,ChaGo-K-1,0.891
19,NCI-H2170,0.691
20,NCI-H2405,0.862
21,HOP-62,0.917
22,HCC-44,0.964
23,SW 900,0.592
24,LU99A,0.438
25,BEN,0.802
26,HARA,0.269
27,NCI-H1648,0.775
28,NCI-H1792,0.65

# Same assay, conditions: first compound 15.81 µM
row,Cell Line,relative viability
1,NCI-H522,0.851
2,NCI-H727,0.678
3,NCI-H1703,0.122
4,NCI-H1993,0.495
5,NCI-H838,0.862
6,LCLC-103H,0.725
7,NCI-H2126,1.03
8,EMC-BAC-2,1.22
9,NCI-H2085,0.915
10,HCC-366,0.191
11,NCI-H1666,0.902
12,NCI-H596,0.92
13,LK-2,0.515
14,NCI-H2087,1.25
15,NCI-H2342,0.431
16,H3255,0.73
17,LOU-NH91,0.75
18,ChaGo-K-1,0.843
19,NCI-H2170,0.614
20,NCI-H2405,0.811
21,HOP-62,0.733
22,HCC-44,1.05
23,LU99A,0.35
24,BEN,0.939
25,HARA,0.356
26,NCI-H1648,0.633
27,NCI-H1792,0.605

# Same assay, conditions: first compound 50 µM
row,Cell Line,relative viability
1,NCI-H522,0.851
2,NCI-H727,0.41
3,NCI-H1703,0.132
4,NCI-H1993,0.665
5,NCI-H838,1
6,LCLC-103H,0.781
7,NCI-H2126,0.936
8,EMC-BAC-2,1.24
9,NCI-H2085,0.991
10,HCC-366,0.186
11,NCI-H1666,0.762
12,NCI-H596,1.05
13,LK-2,0.404
14,NCI-H2087,1.07
15,NCI-H2342,0.388
16,H3255,0.847
17,LOU-NH91,0.793
18,ChaGo-K-1,0.808
19,NCI-H2170,0.804
20,NCI-H2405,0.758
21,HOP-62,0.342
22,HCC-44,0.983
23,SW 900,0.691
24,LU99A,0.293
25,BEN,0.74
26,HARA,0.195
27,NCI-H1648,0.921
28,NCI-H1792,0.633

# Compound: CCn1c(-c2nonc2N)nc2c(C#CC(C)(C)O)ncc(OC[C@H]3CCCNC3)c21 + Cc1nc(NC(=O)N2CCC[C@H]2C(N)=O)sc1-c1ccnc(C(C)(C)C(F)(F)F)c1 [Alpelisib] (partner 2 µM)
# Assay: as above
# Conditions: first compound 0.01 µM
# Summary of the method: as §1
row,Cell Line,relative viability
1,NCI-H727,0.576
2,EBC-1,0.822
3,NCI-H1703,0.333
4,NCI-H1993,0.732
5,SW 1573,0.717
6,NCI-H838,1.05
7,LCLC-103H,0.984
8,NCI-H520,1.01
9,NCI-H2126,0.72
10,EMC-BAC-2,0.756
11,NCI-H2085,0.974
12,Calu-6,0.92
13,HCC-366,0.362
14,NCI-H1666,0.874
15,NCI-H596,0.365
16,LK-2,1.24
17,NCI-H2087,0.917
18,SK-MES-1,0.87
19,H3255,0.659
20,COR-L23,0.695

row,Cell Line,relative viability
1,COR-L 105,1.05
2,IA-LM,0.728
3,LOU-NH91,0.751
4,NCI-H2170,0.837
5,NCI-H2405,0.839
6,HOP-62,0.966
7,HCC-44,0.732
8,A549,0.761
9,LU99A,0.586
10,BEN,1.01
11,HARA,0.843
12,NCI-H2009,1.15
13,NCI-H661,0.562
14,SK-LU-1,1.08
15,NCI-H1299,1.05
16,NCI-H2228,0.68
17,NCI-H1792,0.776
18,NCI-H2023,0.636
19,NCI-H1563,0.872

# Same assay, conditions: first compound 0.03162 µM
row,Cell Line,relative viability
1,NCI-H727,0.527
2,EBC-1,0.973
3,NCI-H1703,0.374
4,NCI-H1993,0.718
5,SW 1573,0.783
6,NCI-H838,1.02
7,LCLC-103H,0.945
8,NCI-H520,0.883
9,NCI-H2126,0.793
10,EMC-BAC-2,0.73
11,NCI-H2085,0.866
12,Calu-6,1.08
13,HCC-366,0.427
14,NCI-H1666,1.1
15,NCI-H596,0.522
16,LK-2,1.27
17,NCI-H2087,1.2
18,SK-MES-1,0.916
19,H3255,0.705
20,COR-L23,0.866

row,Cell Line,relative viability
1,COR-L 105,0.962
2,IA-LM,0.733
3,LOU-NH91,0.795
4,NCI-H2170,0.833
5,NCI-H2405,0.782
6,HOP-62,1.12
7,HCC-44,0.818
8,A549,0.654
9,LU99A,0.558
10,BEN,1.17
11,HARA,0.884
12,NCI-H2009,1.19
13,NCI-H661,0.553
14,SK-LU-1,1.26
15,NCI-H1299,1.06
16,NCI-H2228,0.854
17,NCI-H1792,0.697
18,NCI-H2023,0.625
19,NCI-H1563,0.913

# Same assay, conditions: first compound 0.1 µM
row,Cell Line,relative viability
1,NCI-H727,0.714
2,EBC-1,0.763
3,NCI-H1703,0.392
4,NCI-H1993,0.57
5,SW 1573,0.656
6,NCI-H838,1.03
7,LCLC-103H,1
8,NCI-H520,0.605
9,NCI-H2126,0.74
10,EMC-BAC-2,0.7
11,NCI-H2085,0.988
12,Calu-6,1.02
13,HCC-366,0.293
14,NCI-H1666,0.992
15,NCI-H596,0.482
16,LK-2,0.984
17,NCI-H2087,1.13
18,SK-MES-1,0.856
19,H3255,0.692

row,Cell Line,relative viability
1,COR-L23,0.671
2,COR-L 105,0.871
3,IA-LM,0.987
4,LOU-NH91,0.736
5,NCI-H2170,0.824
6,HOP-62,0.819
7,HCC-44,0.794
8,A549,0.748
9,LU99A,0.538
10,BEN,1.01
11,HARA,0.824
12,NCI-H2009,1.22
13,NCI-H661,0.603
14,SK-LU-1,0.968
15,NCI-H1299,1.05
16,NCI-H2228,0.622
17,NCI-H1792,0.667
18,NCI-H2023,0.539
19,NCI-H1563,0.913

# Same assay, conditions: first compound 0.3162 µM
row,Cell Line,relative viability
1,NCI-H727,0.608
2,EBC-1,0.62
3,NCI-H1703,0.28
4,NCI-H1993,0.729
5,SW 1573,0.73
6,NCI-H838,0.979
7,LCLC-103H,0.848
8,NCI-H520,0.851
9,NCI-H2126,0.746
10,EMC-BAC-2,0.759
11,NCI-H2085,0.865
12,Calu-6,0.963
13,HCC-366,0.475
14,NCI-H1666,0.792
15,NCI-H596,0.487
16,LK-2,0.916
17,NCI-H2087,1.02
18,SK-MES-1,1.11
19,H3255,0.562
20,COR-L23,0.663

row,Cell Line,relative viability
1,COR-L 105,0.703
2,IA-LM,0.654
3,LOU-NH91,0.706
4,NCI-H2170,0.721
5,NCI-H2405,0.749
6,HOP-62,0.951
7,HCC-44,0.761
8,A549,0.482
9,LU99A,0.504
10,BEN,0.987
11,HARA,0.781
12,NCI-H2009,1.17
13,NCI-H661,0.635
14,SK-LU-1,1
15,NCI-H1299,1.03
16,NCI-H2228,0.651
17,NCI-H1792,0.596
18,NCI-H2023,0.504
19,NCI-H1563,0.837

# Same assay, conditions: first compound 1 µM
row,Cell Line,relative viability
1,NCI-H727,0.479
2,EBC-1,0.628
3,NCI-H1703,0.299
4,NCI-H1993,0.868
5,SW 1573,0.734
6,NCI-H838,0.989
7,LCLC-103H,0.953
8,NCI-H520,0.547
9,NCI-H2126,0.753
10,EMC-BAC-2,0.784
11,NCI-H2085,0.84
12,Calu-6,1.14
13,HCC-366,0.386
14,NCI-H1666,0.831
15,NCI-H596,0.503
16,LK-2,1.01
17,NCI-H2087,0.927
18,SK-MES-1,0.953
19,H3255,0.607
20,COR-L23,0.7

row,Cell Line,relative viability
1,COR-L 105,0.808
2,IA-LM,0.613
3,LOU-NH91,0.732
4,NCI-H2170,0.759
5,NCI-H2405,0.855
6,HOP-62,1.13
7,HCC-44,0.786
8,A549,0.714
9,LU99A,0.47
10,BEN,1.01
11,HARA,0.861
12,NCI-H2009,1.18
13,NCI-H661,0.576
14,SK-LU-1,1.13
15,NCI-H1299,0.968
16,NCI-H2228,0.569
17,NCI-H1792,0.791
18,NCI-H2023,0.559
19,NCI-H1563,0.826
